Laboratory results: patent US20170037028A1 (BAYER PHARMA AKTIENGESELLSCHAFT, priority 2013, published 2017)

target: T1, GLUT1 (Homo sapiens, UniProt P11166); assay: Indirect measurement of GLUT1 activity by quantification of intracellular ATP levels (glucose induced ATP increase); type: cell-based; parameters: endogenous in cells; host or cells: DLD1 or CHO-K1; details: read-out: IC50 regarding glucose induced ATP increase (GLUT1 inhibition)
T1 sequence (P11166 1-492): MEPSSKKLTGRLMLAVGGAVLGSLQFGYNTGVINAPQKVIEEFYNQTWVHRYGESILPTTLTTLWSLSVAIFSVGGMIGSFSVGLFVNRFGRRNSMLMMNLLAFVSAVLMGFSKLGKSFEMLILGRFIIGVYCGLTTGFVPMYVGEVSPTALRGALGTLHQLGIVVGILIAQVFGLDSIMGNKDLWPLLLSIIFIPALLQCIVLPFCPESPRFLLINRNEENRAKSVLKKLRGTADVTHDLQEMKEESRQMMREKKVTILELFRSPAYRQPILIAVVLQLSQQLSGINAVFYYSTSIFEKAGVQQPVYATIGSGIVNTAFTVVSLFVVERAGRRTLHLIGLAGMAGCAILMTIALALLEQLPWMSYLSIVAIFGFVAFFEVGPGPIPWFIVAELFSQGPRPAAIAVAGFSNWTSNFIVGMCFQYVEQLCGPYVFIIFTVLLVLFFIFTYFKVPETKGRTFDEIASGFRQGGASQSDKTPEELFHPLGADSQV
In short: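 Intracellular ATP was measured by CellTiter-Glo luminescence as an indirect readout of transport: glucose-driven for GLUT1, fructose-driven for GLUT2. DLD1 or CHO-K1 cells were used alongside an oxidative phosphorylation inhibitor. Beforehand, cells were held overnight in glucose-free 1% FCS medium to deplete ATP.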

SMILES | IC50 [µM]
Cc1cc(C)n(CCn2nc(C)c(NC(=O)c3cc(C(F)(F)F)nc4ccc(Br)cc34)c2C)n1 [Example 1233] | 1.11
Cc1c(NC(=O)c2cc(C(F)(F)F)nc3ccc(Br)cc23)c(C(=O)NCCO)nn1Cc1ccc(F)cc1 [Example 1235] | 1.28
Cc1ccc2nc(C)cc(C(=O)Nc3c(C)nn(Cc4cccc(F)c4)c3C)c2c1 [Example 1236] | 1.29
Cc1nn(Cc2cc(F)ccc2F)c(C)c1NC(=O)c1cc(C(F)(F)F)nc2ccc(Br)cc12 [Example 1238] | 1.37
Cc1nn(Cc2ccc(C(=O)NCC3(CO)COC3)cn2)c(C)c1NC(=O)c1cc(C(F)(F)F)nc2ccc(Br)cc12 [Example 1239] | 1.47
Cc1nn(Cc2ccc(CC(=O)NCCN3CCOCC3)cc2)c(C)c1NC(=O)c1cc(C(F)(F)F)nc2ccc(Br)cc12 [Example 1240] | 1.5
Cc1nn(CC2CCNCC2)c(C)c1NC(=O)c1cc(C(N)=O)nc2ccccc12 [Example 1241] | 1.53
Cc1nn(Cc2ccc(C(F)(F)F)cc2)c(C)c1NC(=O)c1cc(C(F)(F)F)nc2c(Cl)cc(Cl)cc12 [Example 1243] | 1.59
Cc1nn(Cc2cc(F)cc(F)c2)c(C)c1NC(=O)c1cc(C(F)(F)F)nc2c(Cl)cc(Cl)cc12 [Example 1244] | 1.59
COc1cc(C(=O)Nc2c(C)nn(Cc3ccc(F)cc3)c2C(=O)N(C)C)c2ccccc2n1 [Example 1245] | 1.6
COc1cc(C(=O)Nc2c(C)nn(Cc3ncccc3C)c2C)c2ccccc2n1 [Example 1248] | 1.67
Cc1cnc2ccccc2c1C(=O)Nc1c(C)nn(Cc2ccc(F)cc2)c1C [Example 1252] | 1.87
CNC(=O)c1nn(Cc2ccc(F)cc2)c(C)c1NC(=O)c1cc(OC)nc2ccccc12 [Example 1253] | 1.97
CCOC(=O)c1c(NC(=O)c2cc(C(F)(F)F)nc3ccc(Br)cc23)c(C)nn1Cc1ccc(F)cc1 [Example 1255] | 2.01
Cc1nn(Cc2cc(F)cc(F)c2)c(C)c1NC(=O)c1cc(C(F)(F)F)nc2ccc(Br)cc12 [Example 1256] | 2.04
CNC(=O)c1c(NC(=O)c2cc(C(N)=O)nc3ccccc23)c(C)nn1Cc1ccc(F)cc1 [Example 1258] | 2.06
Cc1nn(Cc2ccc(F)cc2)c(C)c1NC(=O)c1cc(O)nc2ccccc12 [Example 1260] | 2.17
Cc1ccc2nc(C)cc(C(=O)Nc3c(C)nn(Cc4ccccn4)c3C)c2c1 [Example 1261] | 2.29
Cc1nn(CC2CCOCC2)c(C)c1NC(=O)c1cc(C(F)(F)F)nc2cc(F)c(F)cc12 [Example 1262] | 2.29
Cc1nc2ccccc2c(C(=O)Nc2c(C)nn(Cc3ccc(F)cc3)c2C)c1C#N [Example 1264] | 2.38
COc1cc(C(=O)Nc2c(C(=O)N(C)C)nn(Cc3ccc(F)cc3)c2C)c2ccccc2n1 [Example 1265] | 2.48
Cc1nn(Cc2ccc(F)cc2)c(C)c1NC(=O)c1cc(C(F)(F)F)nc2ccc(C(=O)O)cc12 [Example 1267] | 2.71
COc1cc(C(=O)Nc2c(C)nn(Cc3ccc(C(F)(F)F)cc3)c2C)c2ccccc2n1 [Example 1269] | 2.89

SMILES | IC50 [µM]
Cc1c(NC(=O)c2cc(C(F)(F)F)nc3ccc(Br)cc23)c(C(=O)O)nn1Cc1ccc(F)cc1 [Example 1271] | 3.06
Cc1nn(Cc2ccc(F)cc2)c(C)c1NC(=O)c1c(C)c(O)nc2ccccc12 [Example 1272] | 3.18
COc1cc(C(=O)Nc2c(C)nn(Cc3c(C)noc3C)c2C)c2ccccc2n1 [Example 1273] | 3.37
COc1ccccc1Cn1nc(C)c(NC(=O)c2cc(C(F)(F)F)nc3ccc(Br)cc23)c1C [Example 1274] | 3.41
Cc1nn(Cc2ccc(F)cc2)c(C)c1NC(=O)c1cc(C(F)(F)F)nc2cc(C(F)(F)F)ccc12 [Example 1276] | 3.81
Cc1ccc2c(C(=O)Nc3c(C)nn(Cc4ccc(F)cc4)c3C)cc(C)nc2c1 [Example 1278] | 3.91
Cc1nn(CCN2CCN(C)CC2)c(C)c1NC(=O)c1cc(C(F)(F)F)nc2ccc(Br)cc12 [Example 1279] | 3.93
Cc1ccc2nc(C)cc(C(=O)Nc3c(C)nn(Cc4cc(F)ccc4F)c3C)c2c1 [Example 1281] | 5.19
Cc1ccc2nc(C)cc(C(=O)Nc3c(C)nn(Cc4cccc(C#N)c4)c3C)c2c1 [Example 1283] | 6.25
Cc1ccc2nc(C)cc(C(=O)Nc3c(C)nn(Cc4ncccc4C)c3C)c2c1 [Example 1285] | 6.25
Cc1nn(Cc2ccccc2OC(F)(F)F)c(C)c1NC(=O)c1cc(C(F)(F)F)nc2c(Cl)cc(Cl)cc12 [Example 1288] | 6.25
COc1cc(C(=O)Nc2c(C)nn(Cc3ccccc3OC(F)(F)F)c2C)c2ccccc2n1 [Example 1289] | 6.25
Cc1ccc2nc(C)cc(C(=O)Nc3c(C)nn(Cc4ccc(C(C)(C)C)cc4)c3C)c2c1 [Example 1290] | 7.11
Cc1nn(Cc2ccc(C(=O)NCCN(C)C)cn2)c(C)c1NC(=O)c1cc(C(F)(F)F)nc2ccc(Br)cc12 [Example 1292] | 7.38
COc1cc(Cn2nc(C)c(NC(=O)c3cc(C)nc4ccc(C)cc34)c2C)cc(OC)c1 [Example 1293] | 7.79
Cc1nn(Cc2ccc(F)cc2)c(C)c1NC(=O)c1cc(C(F)(F)F)nc2ccc(C(N)=O)cc12 [Example 1294] | 8.12
Cc1nn(Cc2cc(F)ccc2F)c(C)c1NC(=O)c1cc(C(F)(F)F)nc2c(Cl)cc(Cl)cc12 [Example 1295] | 8.15
Cc1ccc2nc(C)cc(C(=O)Nc3c(C)nn(Cc4cc(F)cc(F)c4)c3C)c2c1 [Example 1296] | 11.1
Cc1ccc2nc(C)cc(C(=O)Nc3c(C)nn(Cc4ccccc4C(F)(F)F)c3C)c2c1 [Example 1298] | 11.1
Cc1nn(Cc2ccccc2C(F)(F)F)c(C)c1NC(=O)c1cc(C(F)(F)F)nc2c(Cl)cc(Cl)cc12 [Example 1299] | 11.1
Cc1ccc2nc(C)cc(C(=O)Nc3c(C)nn(Cc4cccc(C(F)(F)F)c4)c3C)c2c1 [Example 1300] | 11.1
Cc1nn(Cc2ccccc2C(F)(F)F)c(C)c1NC(=O)c1cc(C(F)(F)F)nc2ccc(Br)cc12 [Example 1301] | 11.1

More lines, in order of falling IC50, values ahead:

IC50 [µM] | SMILES
11.1 | Cc1nn(Cc2cccc(C(F)(F)F)c2)c(C)c1NC(=O)c1cc(C(F)(F)F)nc2ccc(Br)cc12 [Example 1297]
6.25 | COc1cc(C(=O)Nc2c(C)nn(Cc3cc(F)cc(F)c3)c2C)c2ccccc2n1 [Example 1284]
6.25 | COc1cc(C(=O)Nc2c(C)nn(Cc3cccc(C#N)c3)c2C)c2ccccc2n1 [Example 1286]
6.25 | Cc1ccc2nc(C)cc(C(=O)Nc3c(C)nn(Cc4ccccc4OC(F)(F)F)c3C)c2c1 [Example 1287]
6.02 | Cc1nn(CCc2cccc(F)c2)c(C)c1NC(=O)c1cc(C(F)(F)F)nc2ccc(Br)cc12 [Example 1282]
3.85 | Cc1cc(C(=O)Nc2c(C)nn(Cc3ccc(F)cc3)c2C)c2ccc(Br)cc2n1 [Example 1277]
3.5 | Cc1nn(Cc2ccc(C(=O)O)cn2)c(C)c1NC(=O)c1cc(C(N)=O)nc2ccc(F)cc12 [Example 1275]
2.89 | COc1ccccc1Cn1nc(C)c(NC(=O)c2cc(C(F)(F)F)nc3cc(F)c(F)cc23)c1C [Example 1270]
2.85 | Cc1nn(Cc2ccc(F)cc2)c(C)c1NC(=O)c1cc(C(F)(F)F)nc2c(C#N)cccc12 [Example 1268]
2.49 | Cc1nn(C[C@@H]2CCC(=O)N2)c(C)c1NC(=O)c1cc(C(F)(F)F)nc2ccc(Br)cc12 [Example 1266]
2.32 | Cc1nn(Cc2ccc(C(=O)NCC(O)CO)cn2)c(C)c1NC(=O)c1cc(C(F)(F)F)nc2ccc(Br)cc12 (stereo not shown) [Example 1263]
2.1 | Cc1c(NC(=O)c2cc(C(F)(F)F)nc3ccc(Br)cc23)c(C(=O)N(C)C)nn1Cc1ccc(F)cc1 [Example 1259]
2.05 | Cc1nn(Cc2ccc(F)cc2)c(C)c1NC(=O)c1cc(C(F)(F)F)nc2ccc(NS(C)(=O)=O)cc12 [Example 1257]
1.98 | Cc1nn(Cc2ccc(CC(=O)NCCN(C)C)cc2)c(C)c1NC(=O)c1cc(C(F)(F)F)nc2ccc(Br)cc12 [Example 1254]
1.87 | Cc1nn(Cc2ccc(C(=O)NCC3CCCCC3)cc2)c(C)c1NC(=O)c1cc(C(F)(F)F)nc2ccc(Br)cc12 [Example 1251]
1.67 | Cc1nn(Cc2ccc(F)cc2)c(C(=O)N(C)C)c1NC(=O)c1cc(C(N)=O)nc2ccccc12 [Example 1250]
1.67 | Cc1nn(Cc2ccc(F)cc2)c(C)c1NC(=O)c1c2c(nc3ccccc13)CCC2 [Example 1249]
1.67 | CNC(=O)N1CCC(Cn2nc(C)c(NC(=O)c3cc(C(N)=O)nc4ccccc34)c2C)CC1 [Example 1247]
1.66 | Cc1nn(Cc2ccc(C(=O)NCCO)cn2)c(C)c1NC(=O)c1cc(C(N)=O)nc2ccc(F)cc12 [Example 1246]
1.56 | Cc1nn(Cc2ccc(F)cc2)c(C)c1NC(=O)c1cc(C(F)(F)F)nc2ccc(NC(=O)C(N)=O)cc12 [Example 1242]
1.32 | Cc1cc(C(=O)Nc2c(C)nn(Cc3ccc(F)cc3)c2C)c2cc(C#N)ccc2n1 [Example 1237]
1.18 | Cc1nn(Cc2ccc(C(=O)N3CCOCC3)cn2)c(C)c1NC(=O)c1cc(C(F)(F)F)nc2ccc(Br)cc12 [Example 1234]
